{
  "source": "patent US20260027068A1",
  "about": "“METHODS OF ADM[…]-KETAMINE” (Perception Neuroscience, Inc., priority 2022, published 2026)",
  "key": {"[1]": {"test_system": "phencyclidine site of the N-methyl-D-aspartate (NMDA) receptor", "conditions": "phencyclidine site; cited from earlier work"}, "TRD patients": {"test_system": "TRD patients", "conditions": "15 mg; cited from earlier work"}, "[2]": {"conditions": "in vivo; cited from earlier work"}, "rats": {"test_system": "rats", "assay": "Anhedonic or negative affective side effects"}, "[3]": {"assay": "Phase 1 single ascending dose plasma pharmacokinetics of 40-minute IV infusion of R(−)-ketamine and its metabolites", "conditions": "for Tmax: all dose levels 5 mg to 150 mg; for AUC(0-inf) / Cmax / AUC(0-t): iv", "experimental": "This was a Phase 1 randomized, placebo-controlled, double-blind, single dose study conducted at one center. […] The pharmacokinetic (PK) population was 36 subjects, with 12 additional subjects receiving placebo. […] Subjects were male or female healthy subjects, 18 to 65 years of age. […] Cohort 1 was dosed at 5 mg, followed by Cohort 2 at 15 mg, Cohort 3 at 30 mg, Cohort 4 at 60 mg, Cohort 5 at 100 mg, and Cohort 6 at 150 mg R(−)-ketamine. […] In addition to the safety and tolerability data, the study also evaluated the dose-related PK of each 40-minute IV infusion of R(−)-ketamine.\nTo evaluate the pharmacokinetics of R(−)-ketamine, blood was drawn from subjects for PK analysis at the following sampling times: pre-dose (−30 minutes); and from the start of infusion (5, 10, and 15 minutes [±1 minute], 30 minutes [±5 minutes], 40 minutes [immediately prior to infusion completion], 1, 1.5, 2, and 3 hours [±5 minutes], 4 and 8 hours [±10 minutes], 12 and 24 hours [±15 minutes]).\nPlasma PK parameters of R(−)-ketamine and its metabolites (norketamine, 6-hydroxynorketamine, and dehydronorketamine) evaluated on include the following: • Maximum plasma concentration (Cmax), • Time to Cmax (Tmax), • Area under the plasma concentration curve (AUC0-t, AUC0-∞) • Elimination rate constant (λz), • Half-live (t½) • Clearance (CL, P R(−)-ketamine only), • Volume of distribution (Vz, R(−)-ketamine only), and • Metabolite to parent ratios (area under curve [AUC] and Cmax).\nThe dose proportionality was assessed both visually and statistically using calculated Cmax and AUC values. […] Continuous variables: Descriptive statistics included the number of non-missing values (n), arithmetic mean, standard deviation (SD), median, minimum, and maximum values. […] For PK concentration data, the number of non-missing values, number of below limit of quantification (BLQ) values, arithmetic mean, SD, median, minimum, maximum, coefficient of variation (CV %), geometric mean, and geometric CV (geo CV %) values are presented. For PK parameter data, the number of non-missing values, arithmetic mean, SD, median, minimum, maximum, CV %, geometric mean, and geometric CV (geo CV %) values are presented.\nIntravenous administration of allocated blinded study drug (Morning, Day 1) was infused over 40 minutes. Blood collection for plasma PK analysis occurred at infusion 5, 10, 15, 30, 40, 60, and 90 minutes, and 2, 3, 4, 8, and 12 hours after the start of infusion.\nPlasma concentrations of R(−)-ketamine and its metabolites norketamine, 6-hydroxynorketamine, and dehydronorketamine were determined using a suitable validated analytical method with a lower limit of quantitation (LOQ) of 1 ng/mL.\nThe linearity of the increase in exposure with respect to the increasing dose administered was evaluated for Cmax and AUC for R(−)-ketamine and its metabolites (norketamine, 6-hydroxynorketamine and dehydronorketamine). […] The power model was used to estimate the slope parameter and the 90% confidence intervals for the slope."}, "[4]": {"conditions": "5 mg R(−)-ketamine IV over 40 minutes, plasma"}, "[5]": {"conditions": "150 mg R(−)-ketamine IV over 40 minutes, plasma"}},
  "data": [
    {"smiles": "CN[C@]1(c2ccccc2Cl)CCCCC1=O", "note": "[S(+)-ketamine, reference compound]", "values": [
      {"measurement": "Binding affinity relative to R(−)-ketamine", "setting": "[1]", "value": "approximately 4 times"},
      {"measurement": "Antidepressant effect", "setting": "TRD patients", "value": "robust antidepressant effect"},
      {"measurement": "Side effects (hyperlocomotion, prepulse inhibition deficit, drug dependence)", "setting": "[2]", "value": "induced side effects such as a hyperlocomotion, prepulse inhibition deficit, and drug dependence"}
    ]},
    {"smiles": "N[C@@]1(c2ccccc2Cl)CCC[C@@H](O)C1=O", "note": "[R-hydroxynorketamine]", "values": [
      {"measurement": "Anhedonic or negative affective side effects", "setting": "rats", "value": "no anhedonic or negative affective side effects"}
    ]},
    {"smiles": "NC1(c2ccccc2Cl)CCCC(O)C1=O", "note": "(stereo not shown) [6-hydroxynorketamine]", "values": [
      {"measurement": "Arithmetic mean AUC0-24h", "setting": "[3]; 5 mg R(−)-ketamine IV", "value": 110, "unit": "ng·h/mL"},
      {"measurement": "Arithmetic mean AUC0-t", "setting": "[3]; 5 mg R(−)-ketamine IV", "value": 110, "unit": "ng·h/mL"},
      {"measurement": "Arithmetic mean Cmax", "setting": "[3]; [4]", "value": 5.98, "unit": "ng/mL"},
      {"measurement": "Arithmetic mean AUC0-24h", "setting": "[3]; 150 mg R(−)-ketamine IV", "value": 3000, "unit": "ng·h/mL"},
      {"measurement": "Arithmetic mean AUC0-t", "setting": "[3]; 150 mg R(−)-ketamine IV", "value": 3000, "unit": "ng·h/mL"},
      {"measurement": "Arithmetic mean Cmax", "setting": "[3]; [5]", "value": 165, "unit": "ng/mL"},
      {"measurement": "Metabolite/R(−)-ketamine ratio based on AUC0-24h, arithmetic mean", "setting": "[3]; across 5 mg to 150 mg cohorts", "value": 2.22},
      {"measurement": "Metabolite/R(−)-ketamine ratio based on AUC0-t, arithmetic mean", "setting": "[3]; across 5 mg to 150 mg cohorts", "value": 2.22}
    ]},
    {"smiles": "NC1(c2ccccc2Cl)CCC=CC1=O", "note": "(stereo not shown) [dehydronorketamine]", "values": [
      {"measurement": "Arithmetic mean AUC0-24h", "setting": "[3]; 5 mg R(−)-ketamine IV", "value": 2.5, "unit": "ng·h/mL"},
      {"measurement": "Arithmetic mean AUC0-t", "setting": "[3]; 5 mg R(−)-ketamine IV", "value": 1.37, "unit": "ng·h/mL"},
      {"measurement": "Arithmetic mean Cmax", "setting": "[3]; [4]", "value": 0.198, "unit": "ng/mL"},
      {"measurement": "Arithmetic mean AUC0-inf", "setting": "[3]; 15 mg R(−)-ketamine IV", "value": 16.3, "unit": "ng·h/mL"},
      {"measurement": "Fold increase in AUC0-inf", "setting": "[3]; 15 mg to 150 mg (10-fold increase in dose)", "value": 35.3, "unit": "fold"},
      {"measurement": "Arithmetic mean AUC0-24h", "setting": "[3]; 150 mg R(−)-ketamine IV", "value": 424, "unit": "ng·h/mL"},
      {"measurement": "Arithmetic mean AUC0-inf", "setting": "[3]; 150 mg R(−)-ketamine IV", "value": 576, "unit": "ng·h/mL"},
      {"measurement": "Arithmetic mean AUC0-t", "setting": "[3]; 150 mg R(−)-ketamine IV", "value": 424, "unit": "ng·h/mL"},
      {"measurement": "Arithmetic mean Cmax", "setting": "[3]; [5]", "value": 35.6, "unit": "ng/mL"},
      {"measurement": "Stability in the samples", "setting": "[3]; PK samples", "value": "not stable in the samples"}
    ]},
    {"smiles": "NC1(c2ccccc2Cl)CCCCC1=O", "note": "(stereo not shown) [norketamine]", "values": [
      {"measurement": "Metabolite/R(−)-ketamine ratio based on Cmax, arithmetic mean", "setting": "[3]; across 5 mg to 150 mg cohorts", "value": 0.448},
      {"measurement": "half-life", "setting": "[3]; both, human, plasma, intravenous", "value": "6.7 to 8.05", "unit": "h"},
      {"measurement": "Tmax", "setting": "[3]; both, human, plasma, intravenous, Approximate median plasma Tmax", "value": "~1", "unit": "h"},
      {"measurement": "Tmax", "setting": "[3]; both, human, plasma, intravenous, Plasma Tmax range (mixed units as printed)", "value": "0.667 to 2", "unit": "h"},
      {"measurement": "AUC(0-inf)", "setting": "[3]; both, human, plasma, 5 mg", "value": 79.1, "unit": "ng·h/mL"},
      {"measurement": "Cmax", "setting": "[3]; both, human, plasma, 5 mg", "value": 11.4, "unit": "ng/mL"},
      {"measurement": "AUC(0-t)", "setting": "[3]; both, human, plasma, 5 mg, Arithmetic mean AUC0-24h, 5 mg R(−)-ketamine IV", "value": 79.6, "unit": "ng·h/mL"},
      {"measurement": "AUC(0-t)", "setting": "[3]; both, human, plasma, 5 mg, Arithmetic mean AUC0-t, 5 mg R(−)-ketamine IV", "value": 78, "unit": "ng·h/mL"},
      {"measurement": "AUC(0-inf)", "setting": "[3]; both, human, plasma, 150 mg", "value": 3530, "unit": "ng·h/mL"},
      {"measurement": "Cmax", "setting": "[3]; both, human, plasma, 150 mg", "value": 360, "unit": "ng/mL"},
      {"measurement": "AUC(0-t)", "setting": "[3]; both, human, plasma, 150 mg, Arithmetic mean AUC0-24h, 150 mg R(−)-ketamine IV", "value": 3140, "unit": "ng·h/mL"},
      {"measurement": "AUC(0-t)", "setting": "[3]; both, human, plasma, 150 mg, Arithmetic mean AUC0-t, 150 mg R(−)-ketamine IV", "value": 3140, "unit": "ng·h/mL"}
    ]}
  ]
}
